Source: patent publication US4764460A, “Recombinant sigma NS protein” (priority 1985, dated 1988)
Like-named read-outs stand apart in the source and are kept apart here.

Biological target: T1, rσNS (Reovirus type 3, UniProt P03526)
T1 construct: made in house; host or cells: E. coli RR1 (pRK248cIts) carrying pRC23-S3
Test: Inhibition of binding of reovirus ssRNA to rσNS by ribonucleotides
Conditions: for remaining activity at 10000 µM: ribonucleotide 10 mM
Description: In a preliminary experiment it was noticed that the capacity of rσNS to bind (ss) RNAs was abolished if all four ribonucleotides were included in the reaction mixture. The ability of each of the four ribonucleotides (ATP, CTP, GTP, and UTP) to inhibit binding was then examined. […] With the amount of rσNS used in these experiments (130 ng per reaction) GTP inhibition was evident between 0.5 mM and 1 mM (Table 3). The other three ribonucleotides caused little interference with binding even at concentrations of 10 mM (Table 3). This was an important observation for developing σNS as a concentrator of (ss) RNA in test samples to be used in hybridization probe assays. […] The isolated (ss) RNA can then be treated with the hybridization probe in a conventional manner. Obviously since the binding of the σNS protein with the (ss) RNA is non-specific, the specificity of the assay is fully determined by the specificity of the hybridization probe for the desired RNA being assayed.

[1] = read-out: % of [32P]-labeled reovirus ssRNA retained on nitrocellulose membrane, expressed as percentage of control, EXP. 1, ribonucleotide 2 mM (mixture 2 mM each), 130 ng rσNS per reaction
[2] = read-out: % of [32P]-labeled reovirus ssRNA retained on nitrocellulose membrane, expressed as percentage of control, EXP. 2

T1 sequence (P03526 whole entry): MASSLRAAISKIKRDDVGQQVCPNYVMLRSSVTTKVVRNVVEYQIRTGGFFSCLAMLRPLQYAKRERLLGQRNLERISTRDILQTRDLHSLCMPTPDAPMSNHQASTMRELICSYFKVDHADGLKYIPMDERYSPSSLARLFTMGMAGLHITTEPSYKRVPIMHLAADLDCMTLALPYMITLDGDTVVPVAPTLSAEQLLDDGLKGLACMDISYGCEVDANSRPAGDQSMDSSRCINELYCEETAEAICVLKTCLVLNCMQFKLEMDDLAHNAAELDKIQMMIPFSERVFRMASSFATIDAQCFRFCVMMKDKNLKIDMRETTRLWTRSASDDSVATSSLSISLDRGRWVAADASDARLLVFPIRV

Compound	remaining activity at 2000 µM [1] [%]	remaining activity at 10000 µM [2] [%]	remaining activity at 100 µM (read-out: % of [32P]-labeled reovirus ssRNA retained on nitrocellulose membrane, expressed as percentage of control, EXP. 2, ribonucleotide 0.1 mM) [%]	remaining activity at 500 µM (read-out: % of [32P]-labeled reovirus ssRNA retained on nitrocellulose membrane, expressed as percentage of control, EXP. 2, ribonucleotide 0.5 mM) [%]	remaining activity at 1000 µM (read-out: % of [32P]-labeled reovirus ssRNA retained on nitrocellulose membrane, expressed as percentage of control, EXP. 2, ribonucleotide 1 mM) [%]	remaining activity at 2000 µM (read-out: % of [32P]-labeled reovirus ssRNA retained on nitrocellulose membrane, expressed as percentage of control, EXP. 2, ribonucleotide 2 mM) [%]
O=c1ccn([C@@H]2O[C@H](COP(=O)(O)OP(=O)(O)OP(=O)(O)O)[C@@H](O)[C@H]2O)c(=O)[nH]1 [UTP]	59	68				
Nc1ncnc2c1ncn2[C@@H]1O[C@H](COP(=O)(O)OP(=O)(O)OP(=O)(O)O)[C@@H](O)[C@H]1O [ATP]	61	95				
Nc1nc2c(ncn2[C@@H]2O[C@H](COP(=O)(O)OP(=O)(O)OP(=O)(O)O)[C@@H](O)[C@H]2O)c(=O)[nH]1 [GTP]	5	0	93	95	29	15
Nc1ccn([C@@H]2O[C@H](COP(=O)(O)OP(=O)(O)OP(=O)(O)O)[C@@H](O)[C@H]2O)c(=O)n1 [CTP]	58	81				
